Holding throughout (assay type): in vivo
Assay [1] deals with Echinochloa crus-galli var. formosensis. Kind of assay: Comparative Example: herbicidal effect test by application during growth period of paddy rice (three-leaf stage). Conditions: 504 h, 7.5 g per 10 ares, 21 days after application, triplicate, read-out: Weed inhibition rate (%). The protocol: As an example, the herbicidal effect on Echinochloa crus-galli var. formosensis at the three-leaf stage was confirmed by the following method, and the results are specifically shown in Table 7 as a comparative example.
(§1) Herbicidal Effect Test by Application During Growth Period of Paddy Rice
Wagner pots with an area of […] were filled with paddy soil, followed by addition of water and incorporation of chemical fertilizer (N:P:K=16:16:16), after which puddling was performed. After that, 30 seeds of Echinochloa crus-galli var. formosensis were sown at a depth of 0 cm to 1 cm. Immediately after sowing, the pots were flooded and a water depth of approximately 3 cm was maintained. Subsequent management was conducted in a glass greenhouse. When Echinochloa crus-galli var. formosensis reached the three-leaf stage, an emulsifiable concentrate prepared according to Formulation Example 5 using the compound shown below was diluted with water, and a specified amount of the diluted solution was applied by dropper. The amount of the active ingredient to be applied was equivalent to 7.5 g per 10 ares. The test was conducted in triplicate for each chemical concentration group, and the weed inhibition rate (%) was determined 21 days after chemical application using the following formula (Math. 1).

The test system is the same in assay [2]. Kind of assay: Test Example 1: herbicidal effect test by soil application in paddy rice. Conditions: 120 g per 10 ares, 14 days after application. The protocol: (§2) Herbicidal Effect Test by Soil Application in Paddy Rice
(§3) Wagner pots with an area of […] were filled with paddy soil, followed by addition of water and incorporation of chemical fertilizer (N:P:K=16:16:16), after which puddling was performed. After that, seeds of Echinochloa crus-galli var. formosensis, broad-leaved weeds (Lindernia pyxidaria and Monochoria vaginalis), and Scirpus juncoides were sown at a depth of 0 cm to 1 cm, 30 seeds each. Immediately after sowing, the pots were flooded and a water depth of approximately 3 cm was maintained. Subsequent management was conducted in a glass greenhouse. Immediately thereafter, an emulsifiable concentrate prepared according to Formulation Example 5 using the compound shown below was diluted with water, and a specified amount of the diluted solution was applied by dropper. The amount of the active ingredient to be applied was equivalent to 120 g per 10 ares.
(§4) The present test was conducted in duplicate for each chemical concentration group, and the weed inhibition rate (%) was determined 14 days after chemical application using the following formula (Math. 1).

In assay [3] the test system is Monochoria vaginalis. The assay is described as above. Conditions: 120 g per 10 ares, 14 days after application. The protocol:
as §2, §3, §4

The test system of assay [4] is Scirpus juncoides. Described as above. Conditions: 120 g per 10 ares, 14 days after application. As to the method: as §2, §3, §4
Assay [5] relates to Echinochloa crus-galli var. formosensis. Put plainly: Test Example 2: herbicidal effect test by application during growth period of paddy rice. Particulars: 7 days after sowing, 120 g per 10 ares, 14 days after application. As to the method:
as §1
as §3, with “(Lindemia pyxidaria,” for “(Lindernia pyxidaria”, “Seven days after sowing,” for “Immediately thereafter,”, “ares. The test was conducted in duplicate for each chemical concentration group, and the herbicidal effect was evaluated 14 days after chemical application using the same criteria as in Test Example 1.” for “ares.”

For assay [6], the system named is Monochoria vaginalis. Described as above. Particulars: 7 days after sowing, 120 g per 10 ares, 14 days after application. As to the method: as §1
as §3, with “(Lindemia pyxidaria,” for “(Lindernia pyxidaria”, “Seven days after sowing,” for “Immediately thereafter,”, “ares. The test was conducted in duplicate for each chemical concentration group, and the herbicidal effect was evaluated 14 days after chemical application using the same criteria as in Test Example 1.” for “ares.”

The subject of assay [7] is Scirpus juncoides. The description is as above. Conditions: 7 days after sowing, 120 g per 10 ares, 14 days after application. The protocol: as §1
as §3, with “(Lindemia pyxidaria,” for “(Lindernia pyxidaria”, “Seven days after sowing,” for “Immediately thereafter,”, “ares. The test was conducted in duplicate for each chemical concentration group, and the herbicidal effect was evaluated 14 days after chemical application using the same criteria as in Test Example 1.” for “ares.”

For assay [8], the system named is Digitaria ciliaris. Put plainly: Test Example 3: herbicidal effect test by soil application in upland field. Conditions: 1 day after sowing, 120 g per 10 ares, 14 days after application. As to the method:
(§5) Herbicidal Effect Test by Soil Application in Upland Field
(§6) Pots with an area of 36 cm^2 were filled with upland soil (alluvial loam), twenty seeds each of weeds of Digitaria ciliaris, Echinochloa crus-galli, Chenopodium album, and Amaranthus viridis were uniformly mixed with the top 1 cm layer of soil and the surface was lightly pressed down. One day after sowing, an emulsifiable concentrate prepared according to Formulation Example 5 using the compound shown below was diluted with water, and the diluted solution was sprayed onto the soil surface at a rate of 100 liters per 10 ares. The amount of the active ingredient to be applied was equivalent to 120 g per 10 ares. Fourteen days after chemical application, the herbicidal effect was evaluated according to the same criteria as in Test Example 1.

The test system of assay [9] is Echinochloa crus-galli. The description is as above. Particulars: 1 day after sowing, 120 g per 10 ares, 14 days after application. As to the method:
as §5, §6

Assay [10] relates to Digitaria ciliaris. Kind of assay: Test Example 4: herbicidal effect test by stem and leaf treatment in upland field. Particulars: 7 days after sowing, 120 g per 10 ares, 14 days after application. The protocol: (§7) Herbicidal Effect Test by Stem and Leaf Treatment in Upland Field
as §6, with “Seven days” for “One day”

For assay [11], the system named is Echinochloa crus-galli. The assay is described as above. Particulars: 7 days after sowing, 120 g per 10 ares, 14 days after application. As to the method: as §7
as §6, with “Seven days” for “One day”

The test system of assay [12] is Echinochloa crus-galli var. formosensis. Kind of assay: Test Example 5: herbicidal effect test by soil application in paddy rice. Particulars: 7.5 g per 10 ares, 14 days after application. The protocol:
as §2
as §3, with “(Lindemia pyxidaria,” for “(Lindernia pyxidaria”, “7.5” for “120”
(§8) The present test was conducted in duplicate for each chemical concentration group, and the herbicidal effect was evaluated 14 days after chemical application using the same criteria as in Test Example 1.

Assay [13] concerns Monochoria vaginalis. Described as above. Particulars: 7.5 g per 10 ares, 14 days after application. As to the method:
as §2
as §3, with “(Lindemia pyxidaria,” for “(Lindernia pyxidaria”, “7.5” for “120”
as §8

In assay [14] the test system is Scirpus juncoides. The description is as above. Particulars: 7.5 g per 10 ares, 14 days after application. The protocol:
as §2
as §3, with “(Lindemia pyxidaria,” for “(Lindernia pyxidaria”, “7.5” for “120”
as §8

Assay [15] concerns Echinochloa crus-galli var. formosensis. Put plainly: Test Example 6: herbicidal effect test by application during growth period of paddy rice. Particulars: 7 days after sowing, 7.5 g per 10 ares, 14 days after application. The protocol: as §1
as §3, with “(Lindemia pyxidaria,” for “(Lindernia pyxidaria”, “Seven days after sowing,” for “Immediately thereafter,”, “7.5” for “120”, “ares. The test was conducted in duplicate for each chemical concentration group, and the herbicidal effect was evaluated 14 days after chemical application using the same criteria as in Test Example 1.” for “ares.”

In assay [16] the test system is Monochoria vaginalis. The assay is described as above. Particulars: 7 days after sowing, 7.5 g per 10 ares, 14 days after application. The protocol: as §1
as §3, with “(Lindemia pyxidaria,” for “(Lindernia pyxidaria”, “Seven days after sowing,” for “Immediately thereafter,”, “7.5” for “120”, “ares. The test was conducted in duplicate for each chemical concentration group, and the herbicidal effect was evaluated 14 days after chemical application using the same criteria as in Test Example 1.” for “ares.”

The test system of assay [17] is Digitaria ciliaris. Put plainly: Test Example 7: herbicidal effect test by soil application in upland field. Conditions: 1 day after sowing, 7.5 g per 10 ares, 14 days after application. As to the method: as §5
as §6, with “7.5” for “120”

Assay [18] has as its system Echinochloa crus-galli. The assay is described as above. Conditions: 1 day after sowing, 7.5 g per 10 ares, 14 days after application. As to the method: as §5
as §6, with “7.5” for “120”

In assay [19] the test system is Echinochloa crus-galli. Kind of assay: Test Example 8: herbicidal effect test by stem and leaf treatment in upland field. Particulars: 7 days after sowing, 7.5 g per 10 ares, 14 days after application. The protocol: as §7
as §6, with “Seven days” for “One day”, “7.5” for “120”

Assay [20] deals with Amaranthus viridis. Put plainly: Test Example 3: herbicidal effect test by soil application in upland field. Conditions: 1 day after sowing, 120 g per 10 ares, 14 days after application. As to the method: as §5, §6
Assay [21] deals with Chenopodium album. The assay is described as above. Particulars: 1 day after sowing, 120 g per 10 ares, 14 days after application. The protocol:
as §5, §6

In assay [22] the test system is Amaranthus viridis. Kind of assay: Test Example 7: herbicidal effect test by soil application in upland field. Conditions: 1 day after sowing, 7.5 g per 10 ares, 14 days after application. As to the method:
as §5
as §6, with “7.5” for “120”

With `C=C1C(OCc2ccccc2C)C2(C)CCC1(C(C)C)O2` (stereo not drawn), the inhibition (commonly the relative decrease from the control value, in per cent) at 75 g/ha in [1] is 20%.
`CC(C)C1C[C@]2(C)O[C@@]1(C(C)C)C[C@H]2OCc1ccccc1F` (stereo partly drawn) [1-133, (1S,2R,4R)-2-[(2-fluorobenzyl)oxy]-4,5-isopropyl-1-methyl-7-oxabicyclo[2.2.1]heptane]: the weed inhibition rate in [2], in assay [3], in assay [4], in [5], in [6] and in [7] was ≥ 80% throughout. Also, the weed inhibition rate in assay [8], in assay [9], in [10], in [11], in assay [12] and in [13] was ≥ 80% in each case. The weed inhibition rate in assay [14], in [15], in assay [16], in assay [17], in assay [18] and in assay [19] was ≥ 80% each time.
As to `CC(C)[C@]12C[C@@H](OCc3ccccc3C(F)(F)F)[C@](C)(CC1=O)O2` [2-29, (1R,4S5R)-1-isopropyl-4-methyl-5-((2-(trifluoromethyl)benzyl)oxy)-7-oxabicyclo[2.2.1]heptan-2-one], the weed inhibition rate in assay [2], in [4], in [5], in assay [20], in [21] and in assay [8] was ≥ 80% each time. The weed inhibition rate in assay [9], in assay [10], in [11], in assay [12], in assay [14] and in assay [22] was ≥ 80% in each case. Also, the weed inhibition rate in assay [18] and in [19] was ≥ 80% throughout.

(Values after patent publication US20260327240A1, “1,4-CINEOLE DERIVATIVE AND INTERMEDIATE THEREOF, HERBICIDE CONTAINING SAID DERIVATIVE AS ACTIVE INGREDIENT, METHOD FOR USING HERBICIDE, AND METHOD FOR PREPARING AGROCHEMICAL COMPOSITION” (HOKKO CHEMICAL INDUSTRY CO., LTD., priority 2023, published 2026).)
